In patent US7592154B2, “Modulating SOS response induction by antimicrobial agents” (The Board of Trustees of the Leland Stanford Junior …, priority 2005, dated 2009):

Columns and labels:
[1] = tested on: dpiBA transcripts; assay: quantitative RT-PCR of dpiBA transcripts; type: cell-based, E. coli; details: SC1088, 30° C., ampicillin 4 μg/ml for 4 hours (FIG. 1C)
Description: (§1) FIGS. 1A-1C. Structure and transcripts of the dpiBA operon. (A) The dpiB and dpiA genes are aligned in the 5′-3′ direction; citC is 5′ of the dpiBA promoter/operator region and is transcribed divergently from it. The segment of the dpiBA operon included in plasmid pHI1508 is indicated. (B) Agarose gel electrophoresis showing bands generated by reverse transcription PCR amplification of E. coli SC1088 RNA using pairs of oligonucleotide primers corresponding to sequences within dpiB (lane 1, primers a+b), dpiA (lane 2, primers c+d), or both genes (lane 3, primers a+d). Locations of primer sequences are indicated in (A). […] Amounts of template RNA used and loaded onto gels were equal, as assessed by intensity of 16S rRNA bands (bottom panel).

[2] = tested on: E. coli SC1088 wild-type and dpiA, recA, sfiA null mutants; assay: survival of bacterial cultures exposed to antibiotic (cfu counting); type: cell-based; details: for effectiveness (survival) in recA mutant cells versus wild type SC1088: naladixic acid 5 μg/ml, pipericillin 1 μg/ml, kanamycin 5 μg/ml (FIGS. 5A-5C)
Method: FIG. 4. Effect of SOS response induction on survival of bacterial cells expressing DpiA during β-lactam exposure. […] Survival data are also shown for strains containing null mutations in recA (open diamonds), dpiA (open circles), or sfiA (open triangles). […] Percent survival was determined by counting of colony forming units (cfu's), at least 200 colonies were counted per time point, and plotted as a function of exposure time before exposure or after exposure to antibiotics.
Because β-lactam antibiotics kill only bacteria that are dividing, we hypothesized that the ability of these drugs to induce the SOS response, and consequently delay cell division by increasing the expression of sfiA, may provide temporary protection from β-lactam lethality.
The experiments shown in FIG. 4 were repeated with the antibiotics: naladixic acid, at 5 μg/ml; pipericillin, at 1 μg/ml; and kanamycin at 5 μg/ml. As shown in FIGS. 5A-5C, the black squares are wild type cells, strain SC1088, the green circles are the dpiA null strain in that background, and the red diamonds are the recA mutation in that background.

[3] = tested on: SOS-regulated promoter of the sfiA gene; assay: sfiA/lacZ fusion, measure of SOS response; type: cell-based, E. coli
Description: FIGS. 3A-3B. SOS response induced by PBP3 inactivation. […] Both (A) and (B) are averages of three separate experiments. Strains were constructed by P1 transduction. Strain 1088 was transduced with phage P1 from E. coli strains containing recA::Tn10(S3) and lexA71::Tn5 (from Mary Berlyn, CGSC). Strain BR5171 is BR3151 (S4) containing a kanamycin resistance gene introduced into the dpiA locus to create a null mutation; another BR3151 derivative, BR7171, contains a Tn10 insertion in the recA locus to create a null mutation. […] An sfiA/lacZ fusion closely linked to a kanamycin resistance marker (S5) was incorporated into the chromosome of ftsIts strain JOE339 and a JOE339 derivative containing a chloramphenicol resistance gene in the dpiA gene (S1).
A biological consequence of DpiA overexpression is induction of the SOS response; the extent of such induction can be determined by β-galactosidase synthesis from a lacZ fusion with the SOS-regulated promoter of the sfiA gene [e.g. Bacolla et al. (2001) J. Biol. Chem. 276, 18579; Hendricks et al. (2000) Mol. Microbiol. 36, 973], which prevents FtsZ polymerization and inhibits cell division when SOS is activated.
The dependence of β-lactam/PBP3-mediated SOS induction on dpiA contrasted with the lack of effect of the dpiA mutation on RecA expression induced by the DNA damaging agent mitomycin C, indicating the distinctive nature of the cell wall-mediated and DNA damage-mediated paths to SOS induction.

[4] = tested on: dpiB promoter (dpiBA operon); assay: dpiB/lacZ reporter fusion (pHI1508), β-galactosidase synthesis; type: cell-based, E. coli; details: ampicillin 10 μg/ml, 2 hours, 37° C.
[5] = tested on: RecA protein; assay: Western blot with anti-RecA antibody; type: cell-based, E. coli; details: one hour of exposure, relative to absence of induction
Description: Chemiluminescence of bands was quantitated using a BioRad Versadoc 1000 instrument.

[6] = tested on: E. coli PBPs; details: cited from earlier work
[7] = tested on: citC gene; assay: quantitative RT-PCR of citC expression; type: cell-based, E. coli; details: SC1088, 30° C., ampicillin 4 μg/ml for 4 hours (FIG. 1C)
Description: as §1

[8] = tested on: dpiB promoter (dpiBA operon); assay: dpiB/lacZ reporter fusion (pHI1508), β-galactosidase synthesis; type: cell-based, E. coli; details: for expression of the dpi operon (lacZ reporter fusion to the dpiB promoter): E. coli UT481 pHI1508, 30° C., antibiotics at approximately twice the MIC (FIG. 2A)
Method: FIGS. 2A-2C. […] (A) Expression of the dpi operon as measured in lacZ^− E. coli strain UT481 by a lacZ reporter fusion to the dpiB promoter on pHI1508 [in Miller units]. Bacteria were grown at 30° C. with or without (black squares) antibiotics. […] All antibiotics were added at approximately twice the MIC value for E. coli. All points represent the average of at least three separate experiments. (B) Induction of dpiB/lacZ (as measured by β-galactosidase expression calculated in Miller units) in E. coli JOE339, a lacZ^− mutant strain that carries an ftsl^ts mutation. […] (C) Same as (B) but in MC4100, the parent of JOE339. For (B) and (C), bars indicate SD.
We wished to identify stimuli that activate the dpiBA operon; to monitor such activation, we fused a Hind III-Sma I DNA segment containing the region 5′ to dpiB to a lacZ reporter gene fragment (pHI1508 in FIG. 1A) pHI1508 carries a HindIII-SmaI fragment containing the dpiBA operator/promoter and the first 1219 nucleotides of dpiB (indicated by the heavy bar), inserted into the StuI-HindIII sites of pHI1496, fusing it to the lacZ reporter gene (S1). β-Galactosidase synthesis from this construct was investigated under a variety of growth-limiting conditions known to activate two-component systems and/or the SOS response (including growth in media containing different carbon sources; starvation for O2, PO4, or carbon; heat or cold shock; high salt; exposure to ultraviolet light; culture in stationary phase or in conditioned media; and concentration to a high cell density).

[9] = tested on: pabA promoter (gene up-regulated by DpiA); assay: pabA/lacZ fusion (pHI1627), β-galactosidase production; type: cell-based, E. coli; details: ampicillin 10 μg/ml, 2 hours, 37° C.
Description: A library of E. coli promoters fused to a lacZ gene fragment was constructed as follows: SC1088 chromosomal DNA was partially digested with Sau3AI and 1-2 kb fragments were gel extracted, purified, and ligated to the BamHI site of pHI1496, a lacZ expression vector conferring chloramphenicol resistance (S1). […] Three clones were sequenced and found to contain a 5 kb insert in which the melR promoter region was fused to lacZ (pHI1626), a 300 bp fragment that includes the promoter region of pabA (pHI1627), and a 2.5 kb insert containing the 57-minute region of the E. coli chromosome (pHI1628).

## CC1(C)S[C@@H]2[C@H](NC(=O)[C@H](N)c3ccccc3)C(=O)N2[C@H]1C(=O)O [ampicillin]
[1]
  increase in dpiBA transcripts: fourfold
[2]; cells mutated in dpiA, recA, or sfiA, 1 hour exposure, 3 μg/ml
  cells unable to form colonies: 90%
[2]; 3 μg/ml
  exposure required for the same extent of killing (90%) of wild-type cells: 4 h
[2]; 9 μg/ml
  exposure required for the same extent of killing (90%) of wild-type cells: 1 h
[3]; BR3151, ampicillin 4 μg/ml (FIG. 3A)
  lacZ expression from sfiA/lacZ fusion: increased lacZ expression
[3]; bacteria containing a dpiA null mutation, ampicillin 4 μg/ml (FIG. 3A)
  sfiA/lacZ expression: no change
[3]; recA or lexA mutants, ampicillin treatment (FIG. 3A)
  effect on expression of the sfiA/lacZ fusion: prevented the effects
[4]; WT strain 1088 + pHI1508
  β-Galactosidase production: 345 ± 50 Miller units
[4]; dpiA null mutant + pHI1508
  β-Galactosidase production: 113 ± 15 Miller units
[4]; lexA null mutant + pHI1508
  β-Galactosidase production: 110 ± 10 Miller units
[4]; recA null mutant + pHI1508
  β-Galactosidase production: 80 ± 8 Miller units
[5]; dpiA::Km null mutant
  RecA protein increase: no increase
[5]; wt strain 1088, 4 μg/ml
  RecA protein increase: 1.9±0.4 fold
[6]
  binding to E. coli PBPs: binds to all 12 E. coli PBPs
[7]
  increase in expression of citC gene: threefold
[8]
  expression of the dpi operon (lacZ reporter fusion to the dpiB promoter): stimulated
[8]; ampicillin resistant bacteria carrying a plasmid borne gene encoding β-lactamase
  induction of the dpi operon: not observed
[9]; WT strain 1088 + pHI1627
  β-Galactosidase production: 185 ± 20 Miller units
[9]; dpiA null mutant + pHI1627
  β-Galactosidase production: 18 ± 1 Miller units

## CO/N=C(\C(=O)N[C@@H]1C(=O)N2C(C(=O)O)=C(COC(N)=O)CS[C@H]12)c1ccco1 [cefuroxan]
[8]
  expression of the dpi operon (lacZ reporter fusion to the dpiB promoter): stimulated

## CC1=C(C(=O)O)N2C(=O)[C@@H](NC(=O)[C@H](N)c3ccccc3)[C@H]2SC1 [cephalexin]
[6]
  binding to E. coli PBPs: bind only to PBP3
[8]
  expression of the dpi operon (lacZ reporter fusion to the dpiB promoter): stimulated

## CO[C@@]12[C@H](COC(N)=O)C3=C(C(=O)C(C)=C(N)C3=O)N1C[C@@H]1N[C@@H]12 [mitomycin C]
[5]; dpiA::Km null mutant
  RecA protein increase: 2.0±0.3 fold
[5]; wt strain 1088, 4 μg/ml
  RecA protein increase: 1.5±0.2 fold

## CCn1cc(C(=O)O)c(=O)c2ccc(C)nc21 [nalidixic acid]
[2]
  effectiveness (survival) in recA mutant cells versus wild type SC1088: more effective

## CCN1CCN(C(=O)N[C@@H](C(=O)N[C@@H]2C(=O)N3[C@@H]2SC(C)(C)[C@@H]3C(=O)O)c2ccccc2)C(=O)C1=O [pipericillin]
[2]; dpiA mutant bacteria, overnight exposure, 2 μg/ml
  survival relative to the number before addition of antibiotic: 0.001%
[2]
  effectiveness (survival) in recA mutant cells versus wild type SC1088: more effective
[2]; overnight exposure, 2 μg/ml
  surviving wild-type bacteria versus dpiA mutant bacteria: 10 times
[2]; wild-type bacteria, overnight exposure, 2 μg/ml
  survival relative to the number before addition of antibiotic: 0.01%
[6]
  binding to E. coli PBPs: bind only to PBP3
[8]
  expression of the dpi operon (lacZ reporter fusion to the dpiB promoter): stimulated

## penicillin
[8]
  expression of the dpi operon (lacZ reporter fusion to the dpiB promoter): stimulated
